According to BindingDB's records for patent US20230382889 (Volastra Therapeutics, 2023):

Molecular target: T1, Kinesin-like protein KIF18A (Homo sapiens, UniProt Q8NI77)
T1 sequence (Q8NI77 whole entry): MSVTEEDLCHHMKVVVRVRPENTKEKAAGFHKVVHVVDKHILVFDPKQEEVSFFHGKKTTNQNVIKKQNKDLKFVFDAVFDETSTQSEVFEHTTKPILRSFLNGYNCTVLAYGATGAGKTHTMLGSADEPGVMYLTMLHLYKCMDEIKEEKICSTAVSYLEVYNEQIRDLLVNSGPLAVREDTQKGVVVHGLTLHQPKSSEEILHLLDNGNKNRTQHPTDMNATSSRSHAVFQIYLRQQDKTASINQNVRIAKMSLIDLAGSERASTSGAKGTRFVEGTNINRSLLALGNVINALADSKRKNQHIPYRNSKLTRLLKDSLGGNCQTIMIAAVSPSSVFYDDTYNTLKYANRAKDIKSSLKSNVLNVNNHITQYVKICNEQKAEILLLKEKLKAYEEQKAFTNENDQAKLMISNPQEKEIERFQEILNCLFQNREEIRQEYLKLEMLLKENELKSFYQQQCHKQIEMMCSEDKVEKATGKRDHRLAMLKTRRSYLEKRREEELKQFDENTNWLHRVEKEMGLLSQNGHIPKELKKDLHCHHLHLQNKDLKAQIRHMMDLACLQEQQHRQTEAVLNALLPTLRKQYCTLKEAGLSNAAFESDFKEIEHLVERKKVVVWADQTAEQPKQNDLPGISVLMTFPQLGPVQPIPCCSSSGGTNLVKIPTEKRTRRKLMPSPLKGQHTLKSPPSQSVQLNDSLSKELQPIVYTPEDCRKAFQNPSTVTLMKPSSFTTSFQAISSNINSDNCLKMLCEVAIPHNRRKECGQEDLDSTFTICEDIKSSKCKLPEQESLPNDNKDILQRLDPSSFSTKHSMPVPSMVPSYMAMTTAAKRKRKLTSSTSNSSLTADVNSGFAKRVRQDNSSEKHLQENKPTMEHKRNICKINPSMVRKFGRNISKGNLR
Test: Inhibition of KIF18A Microtubule-Dependent ATPase Activity
Description: IC50 values were calculated from concentration vs. % Inhibition data via a four-parameter variable slope model.

IC50: 0.077 µM
SMILES: O=S(=O)(CCO)Nc1cc(N2CCC3(CC2)CC3)c(-c2cn(-c3ccc(F)c(S(=O)(=O)N4CC(F)(F)C4)c3)nn2)cn1 [US20230382889, Compound 112]
